Read-outs that look alike come from different tables or passages of the source.
Tests used:
SARS-CoV E protein = SARS-CoV E protein (Severe acute respiratory syndrome coronavirus, UniProt P59637); format: cell-based
Vpu protein = Vpu protein (Human immunodeficiency virus type 1 group M subtype B, UniProt P05919); settings: halo of growth score between zero and six; XL1-blue E. coli with pPL-Vpu, no adenine, 37° C.
MHV (strain MHV-A59) = settings: L929 cells
229E-CoV E-protein = 229E-CoV E-protein (Human coronavirus 229E, UniProt P19741); experiment: Bacterial bio-assay for 229E-CoV E-protein; settings: halo of growth score; E. coli expressing E protein at 37° C.

Row | SMILES | SARS E protein Inhibition (score/# of times tested) (SARS-CoV E protein) | Vpu Inhibition (score/# of times tested) (Vpu protein) | Percent reduction in Plaque number/# experiments (MHV (strain MHV-A59); 1 uM) | Percent reduction in Plaque number/# experiments (MHV (strain MHV-A59); 10 uM) | Percent reduction in Plaque number/# experiments (MHV (strain MHV-A59); 20 uM) | 229E E protein Inhibition (score) (229E-CoV E-protein) | Toxic (noted in place of plaque reduction) (MHV (strain MHV-A59); 20 uM)
1 | NC(N)=NC(=O)c1cccc2ccccc12 [1-napthoylguanidine] | 1.32/3 score | 0.3/2 score | 2/3% | 62/3% | 71/3% | 1.9 | –
2 | Cc1cc(C)c(C)c(/C=C/C(=O)NC(=N)N)c1C [2,3,5,6,-tetramethylcinnamoylguanidine] | 1.00/1 score | 1.6/2 score | 0/1% | 68/2% | – | 0.3 | –
3 | N=C(N)NC(=O)/C=C/c1cccc(F)c1F [2,3-difluorocinnamoylguanidine] | 4.50/1 score | 1.56/2 score | 64/2% | 92/3% | – | 3.3 | Toxic
4 | Cc1cccc(/C=C/C(=O)NC(=N)N)c1C [2,3-dimethylcinnamoylguanidine] | – | 3.1/2 score | 34/1% | 79/2% | 95/1% | 0.5 | –
5 | Cc1cc(C)c(/C=C/C(=O)NC(=N)N)c(C)c1 [2,4,6-trimethylcinnamoylguanidine] | – | 1.4/2 score | 27/2% | 61/3% | 91/2% | 0.9 | –
6 | Cc1ccc(C)c(/C=C/C(=O)NC(=N)N)c1 [2,5-dimethylcinnamoylguanidine] | 3.63/1 score | 2.69/2 score | 39/3% | 91/3% | 95/3% | 1.6 | –
7 | N=C(N)NC(=O)/C=C/c1ccccc1C(F)(F)F [2-(trifluoromethyl)cinnamoylguanidine] | 1.38/1 score | 2.4/2 score | 13/1% | 15/1% | 19/1% | 1.5 | –
8 | N=C(N)NC(=O)/C=C/c1ccccc1C1CCCCC1 [2-cyclohexylcinnamoylguanidine] | 1.83/1 score | 0.8/2 score | 16/1% | 74/2% | 100/1% | 0.8 | –
9 | CCOc1ccccc1/C=C/C(=O)NC(=N)N [2-ethoxycinnamoylguanidine] | 2.57/1 score | 2.25/2 score | 48/2% | 85/3% | 93/2% | 0.6 | –
10 | CCc1ccccc1/C=C/C(=O)NC(=N)N [2-ethylcinnamoylguanidine] | 1.50/1 score | 2.75/2 score | 34/1% | 81/2% | 96/1% | 0.8 | –
11 | N=C(N)NC(=O)/C=C/c1ccccc1F [2-fluorocinnamoylguanidine] | 0.63/1 score | 2.1/2 score | – | 73/1% | 76/1% | 0.4 | –
12 | Cc1ccccc1/C=C/C(=O)NC(=N)N [2-methylcinnamoylguanidine] | 1.00/1 score | 3.1/2 score | 20/1% | 82/1% | 91/1% | 0.5 | –
13 | NC(N)=NC(=O)c1ccc2ccccc2c1 [2-napthoylguanidine] | 1.38/2 score | 2.7/11 score | 34/2% | 36/2% | 67/2% | 0.3 | –
14 | N=C(N)NC(=O)/C=C/c1ccccc1-c1ccccc1 [2-phenylcinnamoylguanidine] | – | 2.1/2 score | 42/1% | 100/1% | – | 3.0 | –
15 | COc1cc(/C=C/C(=O)NC(=N)N)cc(OC)c1OC [3,4,5-trimethoxycinnamoylguanidine] | 2.25/1 score | – | 21/1% | 84/1% | 84/1% | 0.1 | –
16 | N=C(N)NC(=O)/C=C/c1ccc(F)c(F)c1 [3,4-difluorocinnamoylguanidine] | – | 2.06/2 score | 50/1% | 91/2% | – | 0.4 | Toxic
17 | N=C(N)NC(=O)/C=C/c1ccc2ccccc2c1 [3-(2-napthyl)acryloylguanidine] | 3.88/1 score | 1.56/2 score | 40/1% | 93/1% | 93/1% | 3.0 | –
18 | CCOc1cccc(/C=C/C(=O)NC(=N)N)c1 [3-ethoxycinnamoylguanidine] | – | 1.9/2 score | 58/1% | 89/2% | 100/1% | 0.3 | –
19 | N=C(N)NC(=O)/C=C/c1cccc(F)c1 [3-fluorocinnamoylguanidine] | 1.50/1 score | 1.9/2 score | 31/1% | 93/2% | 100/1% | 0.5 | –
20 | CC(C)c1cccc(/C=C/C(=O)NC(=N)N)c1.Cl [3-isopropylcinnamoylguanidine hydrochloride] | – | 2.6/2 score | 32/1% | 99/2% | – | 4.0 | –
21 | N=C(N)NC(=O)/C=C/c1cccc(-c2ccccc2)c1 [3-phenylcinnamoylguanidine] | 3.13/1 score | 2.54/3 score | 64/3% | 86/2% | – | 2.9 | Toxic
22 | CC(C)(C)c1cccc(/C=C/C(=O)NC(=N)N)c1 [3-t-butylcinnamoylguanidine] | 2.00/1 score | 2.06/2 score | 49/2% | 94/3% | – | 3.9 | Toxic
23 | N=C(N)NC(=O)/C=C/c1ccc(C(F)(F)F)cc1 [4-(trifluoromethyl)cinnamoylguanidine] | 2.75/1 score | 2.2/2 score | 46/3% | 95/3% | 97/3% | 2.3 | –
24 | CC(C)(C)c1ccc(/C=C/C(=O)NC(=N)N)cc1 [4-t-butylcinnamoylguanidine] | 4.00/1 score | 0.19/2 score | – | – | – | 4.0 | –
25 | NC(N)=NC(=O)c1ccc2cc(C(=O)N=C(N)N)ccc2c1 [N,N′-Bis(amidino)napthalene-2,6-dicarboxamide] | 0.25/2 score | – | 0/1% | 16/1% | 19/1% | 0.3 | –
26 | N=C(N)NC(=O)COc1ccc(Cl)cc1 [[(4-Chlorophenoxy-acetyl]guanidine, (4-Chlorophenoxy-acetyl)guanidine] | 0.19/2 score | 0.56/2 score | 0/1% | 16/1% | 19/1% | – | –
27 | N=C(N)NC(=O)/C=C/c1ccoc1 [trans-3-Furanacryoylguanidine, trans-3-furanacryoylguanidine] | 0.88/2 score | 0.38/2 score | 48/1% | 65/1% | 70/1% | – | –
